We go through two compounds from patent US20040259176A1, “Structural basis for the guanine nucleotide-binding activity of tissue transglutaminase and its regulation of transamidation activity” (priority 2003, published 2004).

Holding throughout (type): cell-based, human
Test [1] concerns MDAMB231 cells. Description: Western blot for cleaved (activated) caspase 3. To be noted: MDAMB231 cells exposed to doxorubicin; FIG. 11A. On the procedure:
(§1) FIGS. 1A-D illustrate that the protective effect of EGF from doxorubicin-induced apoptosis is blocked by MDC in SKBR3 cells. In FIG. 11A, nearly confluent cultures of SKBR3 and MDAMB231 cells were placed in low serum medium. The following day, the cells were exposed to low serum medium +/−0.25 μM doxorubicin (Dox) for the times indicated and subsequently lysed. The presence of the activated form of caspase 3 (cleaved caspase 3) and actin (actin) in the cell extracts was assessed by Western blot analysis. In FIG. 11B, SKBR3 and MDAMB231 cells were maintained in low serum medium (0) or treated with 10 μM MDC (MDC) for 1.5 days. During this incubation, the SKBR3 cell cultures were also stimulated with +/−100 ng/ml EGF or +/−5 μM RA. All cell cultures were then treated with +/−0.25 μM doxorubicin (Dox) for about 1 day and the cells were scored for programmed cell death as described in Example 13. The assay was performed three times and the average percentage of cell death was plotted (FIG. 11C).
(§2) NIH3T3 cells were grown in Dulbecco's modified Eagle's medium containing 10% calf serum and 100 units/ml penicillin. SKBR3 and MDAMB231 cells were grown in RPMI 1640 medium containing 10% fetal bovine serum and 100 units/ml penicillin. The cell lines were maintained in a humidified atmosphere with 5% CO2 at 37° C. […] Protein concentrations were determined using the Bio-Rad DC protein assay. […]
On the technique in general: In western blotting, separated proteins are transferred to a membrane and probed.

The subject of test [2] is SKBR3 cells. Put plainly: Western blot for cleaved (activated) caspase 3. To be noted: 24 hours of incubation with doxorubicin, FIG. 11A. The procedure:
as §1, §2

The subject of test [3] is MDAMB231 cells. Description: Nuclear condensation or blebbing assay (doxorubicin-induced apoptosis). To be noted: FIG. 11C. On the procedure:
as §1
(§3) NIH3T3 cells were grown in Dulbecco's modified Eagle's medium containing 10% calf serum and 100 units/ml penicillin. SKBR3 and MDAMB231 cells were grown in RPMI 1640 medium containing 10% fetal bovine serum and 100 units/ml penicillin. The cell lines were maintained in a humidified atmosphere with 5% CO2 at 37° C. For the various treatments described, the cells were grown to near confluence in medium containing 10% serum, and then medium containing 1% serum or no serum with 5 μM RA, and/or 100 ng/ml EGF, +/−7 μM LY294002, and +/−0.2 μM doxorubicin were added for the appropriate amount of time. Cells were rinsed with phosphate-buffered saline (PBS) and then lysed with cell lysis buffer (10 mM Na2HPO4, 150 mM NaCl, 1% Triton X-100, 0.5% sodium deoxycholate, 0.1% SDS, 0.004% NaF, 1 mM NaVO4, 25 mM β-glycerophosphoric acid, 100 μg/ml phenylmethanesulfonyl fluoride, and 1 μg/ml each aprotinin and leupeptin, pH 7.35). The lysates were clarified by centrifugation at 12,000×g for 10 minutes at 4° C. Protein concentrations were determined using the Bio-Rad DC protein assay.
(§4) Cells were seeded in 6-well dishes and grown in complete medium for 2 days. The cells were then incubated in medium containing 1% serum +/−5 μM RA, +/−100 ng/ml EGF, and +/−10 μM MDC for 2 days. The cultures were then incubated with fresh medium containing RA, EGF, and MDC and +/−0.2 μM doxorubicin for an additional 1.5 days and were fixed and stained with 4,6-diamidino-2-phenylindole (2 μg/ml) for viewing by fluorescence microscopy. Apoptotic cells were identified by condensed nuclei and/or blebbing.

Test [4] deals with SKBR3 cells. The description is as above. On the procedure:
as §1, §3, §4

Regarding `COc1cccc2c1C(=O)c1c(O)c3c(c(O)c1C2=O)C[C@@](O)(C(=O)CO)C[C@@H]3O[C@H]1C[C@H](N)[C@H](O)[C@H](C)O1` [doxorubicin], in test [1], the “cleaved form of caspase 3” value was “failed to induce the cleaved form of caspase 3 to the same extent as in SKBR3 cells”. In addition, the “cleaved or activated caspase 3” value in test [2] was “easily detected”. Besides, in test [3] (MDAMB231 cells exposed to doxorubicin (0.25 μM)), the apoptotic rate came out at 25%. Besides, the “cells displaying nuclear condensation or blebbing” value in test [4] (SKBR3 cells exposed to doxorubicin (0.25 μM, about 1 day), low serum, FIG. 11B) is recorded as around 80%.
Turning to `CN(C)c1cccc2c(S(=O)(=O)NCCCCCN)cccc12` [MDC, monodansylcadaverine], in test [3] (MDAMB231 cells, 10 μM MDC plus doxorubicin), the “susceptibility to doxorubicin-induced apoptosis compared to doxorubicin treatment alone” value is on record as “slightly more than twice as susceptible”. Also, in test [4] (SKBR3 cells incubated with MDC (10 μM), EGF and doxorubicin), the “effect on the pro-survival effect of EGF from doxorubicin-induced apoptosis” value was “nearly completely eliminated the pro-survival effect of EGF”.
